Patent US20190070170A1, “METHOD OF S[…]-1” (Macau University of Science and Technology, priority 2017, published 2019)

Key:
Type in all cases: cell-based
[1] = system: PGE2; test: PGE2 production in LPS-stimulated rat peritoneal macrophages (ELISA); conditions: SIN 160, 320 or 640 μM or 0.5 μM DEX 1 h, then LPS 1 μg/ml 24 h
Description: (§1) Sprague-Dawley (SD) rats from the University of Hong Kong were housed in cages with free access to food and water. Peritoneal macrophages of SD rats were isolated as described in Liu J. et al., Pharmacological research 2016, 111:303-315. Briefly, untreated rats were sacrificed and after laparotomy, about 50 ml cold sterile Hank's balanced salt solution (HBSS) was used to lavage the peritoneal cavity at twice, and then the peritoneal lavage fluid was collected and centrifuged at 1500 rpm for 10 min. The cell pellets was suspended at a density 1.5×10^6 cells/ml in pre-hearted DMEM medium with 10% heat-inactivated FBS, penicillin G (100 units/ml), streptomycin ([…]), and L-glutamine (2 mM), followed by seeding in 6-well plates at a density of 4.5×10^6 cells and incubation for 2 h. Then the medium were discarded to remove the non-adherent cells. The adherent cells were further washed for two times with pre-heated DMEM medium to remove floating cells. Next, cells were pre-treated with various concentration of SIN for 1 h, followed by stimulation with LPS (1 μg/ml).
(§2) RAW264.7 cells and rat peritoneal macrophages were seeded in a 96-well plate at density of 1.4×10^4 and 1.5×10^5 cells, respectively. […] The optical density was measured at 570 nm against a reference wavelength of 650 nm using a microplate UV/VIS spectrophotometer (Tecan, Mannedorf, Switzerland). […]

[2] = system: COX-2; test: COX-2 mRNA level in LPS-activated rat peritoneal macrophages (qRT-PCR); conditions: SIN 1 h, LPS 12 h
Description: (§3) Peritoneal macrophages were cultured in 6-well plates and pre-treated with the indicated concentration of SIN for 1 h, followed by LPS stimulation for another 12 h. RNA was isolated from rat peritoneal macrophages using the Nucleospin RNA kit from Macherey-Nagel (Duren, Germany) according to the manufacturer's instructions. RNA concentration derived from each sample was assessed by NanoDrop UV Spectrophotometer from Thermo Scientific (Asheville, N.C., USA). RNA (1 μg) was reverse transcripted using the transcriptor universal cDNA master reagents from Roche Applied Science (Mannheim, Germany). Gene expression quantification was performed by a high-productivity real-time quantitative PCR ViiA™ 7 machine using SYBR Green reagents from Roche Applied Science (Mannheim, Germany) according a standard protocol recommended by the manufacturer and the cycling parameters were as followed: uracil removal incubation (50° C., 2 min), polymerase activation (95° C., 10 min), 40 cycles of denaturation (95° C., 15 s) and annealing/extension (60° C., 30 s) and a melt curve stage (95° C., 15 s, 60° C., 1 min and 95° C., 15 s).
(§4) Rat primers used in the research are listed as follows:
(§5) • The levels of gene expression were quantitated using the 2(−Delta Delta C(T)) method. […]

[3] = system: mPGES-1; test: mPGES-1 mRNA level in LPS-activated rat peritoneal macrophages (qRT-PCR); conditions: SIN 1 h, LPS 12 h
Description: as §3, §4, §5

[4] = system: CEBPβ (COX-2 promoter); test: ChIP assay: CEBPβ DNA binding to COX-2 promoter in LPS-stimulated rat peritoneal macrophages; conditions: 640 μM SIN 1 h, 1 μg/ml LPS 30 min
Description: (§6) Rat peritoneal macrophages were pretreated with 640 μM SIN (1 h) and stimulated with 1 μg/ml LPS (30 min) before fixation at room temperature for 10 min with 1% formaldehyde. Fixation was terminated by adding glycine (to 0.125 M) with an additional incubation of 5 min, then the cells were washed twice with ice-cold PBS and harvested by scraping and centrifugation (1500 rpm for 10 min at 4° C.). Cell lysis was performed using ChIP kit from abcam (Cambridge, UK) according to the manufacturer's instructions. Briefly, cell pellets were resuspended in 1 ml Buffer B by pipetting up and down several times in a microcentrifuge tube and incubated at room temperature for 10 min. After centrifugation at 5000 rpm, the pellet was collected and resuspended in ice cold Buffer C and incubated on ice for 10 min, followed by centrifugation (5,000 rpm for 10 min at 4° C.). The pellet was mixed with 100 μl Buffer D containing protease inhibitors, incubated on ice for 10 min and sonicated for 30 cycles in a Bioruptor UCD-300 sonicator (power on high, 30 s on, 30 s off per cycle), yielding DNA fragments of 150-200 bps (the size of sonicated chromatin was checked through running 2% agarose gel). Beads were blocked overnight in PBS with 0.5% BSA and then added to the samples. […]

[5] = molecular target: T1, NF-κB (mPGES-1 promoter) (Rattus norvegicus, UniProt Q7TQN4); test: ChIP assay: NF-κB DNA binding to mPGES-1 promoter in LPS-stimulated rat peritoneal macrophages; conditions: 640 μM SIN 1 h, 1 μg/ml LPS 30 min
T1 construct: Peritoneal macrophages of SD rats were isolated; endogenous in cells; host or cells: primary peritoneal macrophages of SD rats
T1 sequence (Q7TQN4 whole entry): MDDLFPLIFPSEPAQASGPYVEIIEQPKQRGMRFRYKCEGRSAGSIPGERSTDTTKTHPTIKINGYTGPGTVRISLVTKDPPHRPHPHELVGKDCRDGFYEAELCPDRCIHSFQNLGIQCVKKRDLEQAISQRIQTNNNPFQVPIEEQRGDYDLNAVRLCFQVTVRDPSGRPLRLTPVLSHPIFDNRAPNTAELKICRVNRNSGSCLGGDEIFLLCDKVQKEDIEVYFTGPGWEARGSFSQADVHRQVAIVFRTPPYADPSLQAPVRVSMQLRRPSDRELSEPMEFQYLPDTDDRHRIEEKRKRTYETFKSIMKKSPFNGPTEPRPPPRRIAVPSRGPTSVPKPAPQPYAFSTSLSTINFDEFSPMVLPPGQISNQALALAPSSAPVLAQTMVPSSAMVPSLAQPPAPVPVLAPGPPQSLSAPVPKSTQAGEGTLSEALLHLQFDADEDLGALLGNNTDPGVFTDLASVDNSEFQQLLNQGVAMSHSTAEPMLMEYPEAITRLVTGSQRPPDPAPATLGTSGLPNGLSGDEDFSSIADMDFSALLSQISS
Description: as §6

[6] = system: TNF-α; test: TNF-α level in LPS-stimulated rat peritoneal macrophages (ELISA); conditions: pretreatment 1 h, LPS 1 μg/ml 24 h
Description: as §1, §2

Compound: COC1=C[C@@H]2[C@@H]3Cc4ccc(OC)c(O)c4[C@]2(CCN3C)CC1=O [SIN, sinomenine]
- PGE2 production [1]: significant inhibition of PGE2 production in a dose dependent manner
- gene level of COX-2 (mRNA) [2]: did not suppress
- mPGES-1 gene expression (mRNA) [3]: significantly and dose-dependently inhibited
- DNA binding of CEBPβ to the COX-2 promoter [4]: inhibited
- DNA binding of NF-κB to the promoter of mPGES-1 [5]: selectively inhibited
- TNF-α production [6]: significantly inhibited
